Measurements from patent US10399966B2, “Compounds for treatment of trypanosomes and neurological pathogens and uses thereof” (The University of North Carolina at Chapel Hill, priority 2016, dated 2019).
Read-outs that look alike come from different tables or passages of the source. Marks after values point to notes of the source that are not given here.

Tests used:
[1] = tested on: Trypanosoma cruzi; test: Efficacy against T. cruzi in vitro; assay type: cell-based; conditions: Trypanosoma cruzi; for EC90: read-out: T.cruzi EC90
[2] = Metabolic stability in human liver microsomes; assay type: in vitro ADME; conditions: for Human microsomes, percentage of compound remaining / half-life at 1.5 μM: Table 12; for Human microsomes, percentage of compound remaining: after 60 min (where t1/2 > 60 min); for half-life at 3 μM / half-life at 1.5 μM: both sexes, human, liver microsomes, pH 7.4; for half-life at 3 μM: Table 5, read-out: Microsome t1/2 (min) Human; for half-life at 1.5 μM: 37° C., NADPH (1 mM), microsomes 0.5 mg/mL, test compounds 1.5 μM, read-out: Human microsomes t1/2
Description: (§1) Metabolic stability was evaluated using liver microsomes derived from mouse and human sources. Microsomal incubations were carried out according to a protocol described previously (Wang et al., Antimicrob. Agents Chemother. 54:2507 (2010)) with modifications. Briefly, substrate stock solutions were prepared in DMSO and DMSO content was kept at 0.5% (v/v) in final incubations. Incubation mixtures ([…]), liver microsomes (0.5 mg/mL) from mouse (pool of 1000, CD-1 male mouse) or human (pool of 50, mixed gender) (XenoTech LLC, Lenexa, Kans.) in a phosphate buffer (100 mM, pH 7.4) containing 3.3 mM MgCl2. After a 5-minute pre-equilibration period at 37° C., reactions (in triplicate) were initiated by adding the NADPH cofactor (1 mM). For NADPH-independent reactions, the cofactor was replaced with water. Aliquots (10 μl) of the reaction mixtures were removed at 0, 15, 30, and 60 minutes and individually mixed with 200 μL of ice-cold acetonitrile containing internal standard. The mixtures were vortex-mixed, and precipitated protein was removed by centrifugation at 2,250×g for 15 min. The supernatant fractions were dried using a 96-well microplate evaporator (Apricot Designs Inc., Covina, Calif.) under N2 at 50° C. and reconstituted with 100 μL 50% methanol containing 0.1% trifluoroacetic acid before UPLC-MS/MS analysis. In vitro half-life (t1/2) was obtained by analyzing the substrate concentration vs. incubation time curve using the one-phase exponential decay model (GraphPad Prism® 5.0, San Diego, Calif.).

[3] = Distribution between mouse plasma and brain (brain penetration, ip); assay type: in vivo; conditions: for Brain/plasma ratio / [compound]Brain / [compound]Plasma: Table 14, mice, single ip dose 5 mg/kg, one hour post-dose; for Kp at 1 h / concentration at 1 h / concentration at 60 min: 5 mg/kg; for Kp at 1 h: read-out: Average brain/plasma ratio; for [compound]Brain / [compound]Plasma: ± SEM of 3 mice (compound 3: 6 mice)
In short: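 Mice (n=3) received a single 5 mg/kg ip dose in 7% Tween 80, 3% ethanol, 5% DMSO, 0.9% saline and were sacrificed 1 h post-dose. Plasma and acetonitrile brain homogenates analysed by LC/MS/MS; brain concentration corrected for 2.5% vasculature volume, assuming 1 g = 1 mL.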

[4] = tested on: T. b. brucei; test: In vitro antitrypanosomal activity against T. brucei (growth inhibition); assay type: cell-based, Trypanosoma brucei; conditions: Trypanosoma brucei; for EC90: read-out: T. brucei EC90
In short: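 Dose-response EC50 against T. brucei parasites with 0.4% DMSO final, 48 h at 37 °C; parasite density quantified by ATP luminescence (CellTiter-Glo).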

[5] = Metabolic stability in mouse liver microsomes; assay type: in vitro ADME; conditions: for Mouse microsomes, percentage of compound remaining: after 60 min (where t1/2 > 60 min); for half-life at 1.5 μM: read-out: Mouse microsomes t1/2
Description: as §1

[6] = Mouse oral pharmacokinetics; assay type: in vivo; conditions: for Tmax: read-out: Mouse oral PK Tmax (converted); for percent of the Cmax remaining: mouse oral 50 mg/kg
Description: […] Experiments were performed with groups of three mice per compound. Plasma was separated and extracted with acetonitrile for measurements of compound concentrations by liquid chromatography/tandem mass spectrometry.

[7] = tested on: human hepatocytes HepG2; test: Cytotoxicity against HepG2 cells; conditions: for EC50: Homo sapiens, HepG2, read-out: HepG2 EC50
[8] = tested on: human lymphocytes CRL-8155; test: Cytotoxicity against CRL-8155 cells; conditions: human lymphoblasts; for EC50: read-out: CRL-8155 EC50, concentration required to inhibit growth by 50%; for EC90: read-out: CRL-8155 EC90, concentration required to inhibit growth by 90%
Description: (§2) The selectivity of each compound for the parasite over each of the two cell lines was calculated.

[9] = tested on: T. b. brucei TREU667; test: Mouse efficacy model of chronic T. brucei infection; assay type: in vivo; conditions: single intraperitoneal dose 10 mg/kg on day 21
Description: For chronic efficacy, experiments were done in compliance with the University of Washington IACUC approved protocol. According to published procedures, groups of 5 mice were infected with 1×10^4 T. b. brucei (strain TREU667) at day 0 to establish a chronic infection. Treatment began on day 21 post-infection, and mice received 50 mg/kg test compound orally b.i.d. for 10 d (total of 20 doses) in a 200 μL volume of a vehicle composed of Phosal 53 MCT (60%), PEG400 (30%) and EtOH (10%). A control group received vehicle with no compound and another control group received a single intraperitoneal dose of diminazene aceturate at 10 mg/kg in water on day 21. […] Post dosing, parasitemia was monitored via microscopic examination of tail blood slides until 180 days post-infection. Mice were removed from the experiment once parasites were detected in the blood.
In a model of the chronic phase of HAT, compound 1 was administered to five mice infected with T. b. brucei TREU667 at 50 mg/kg/po b.i.d.×10 days, beginning 21 days post-infection. […] Efficacy PK blood samples were collected from three of the five mice prior to dose 15, and at 1 h and 6 h post-dose. […] Compound 1 attained 5/5 cures as determined by the absence of detectable parasitemia in any of the treated mice through 180 days post-infection (FIG. 2). […]

[10] = tested on: human lymphocytes CRL-8155
Description: as §2

[11] = Cytotoxicity against HepG2 cells; conditions: human
[12] = in vitro; conditions: human
Description: as §2

[13] = Table 10, read-out: T.cruzi EC50
[14] = Table 8, groups of 3 mice (compound 3: ± SEM of 6 mice)
[15] = mouse, brain and plasma, intraperitoneal, Table 8, groups of 3 mice
[16] = Table 8, read-out: T. brucei EC50
[17] = Table 11, read-out: T. b. brucei EC50
[18] = Table 12, read-out: T. b. brucei EC50
[19] = Table 9, read-out: T. brucei EC50
[20] = Table 13, mice, single 50 mg/kg oral gavage, vehicle Tween 80 (7%), EtOH (3%), DMSO (5%) in 0.9% NaCl, ± SEM of 3 mice
[21] = Table 13, mice, single 50 mg/kg oral gavage, vehicle Tween 80 (7%), EtOH (3%), DMSO (5%) in 0.9% NaCl, ± SEM of 3 mice, read-out: Cmax
[22] = mouse, plasma, po, 50 mg/kg, Table 5, n = 3, read-out: Mouse oral PK Average Cmax
[23] = mouse, plasma, po, 50 mg/kg, Table 5
[24] = read-out: HepG2 EC90, concentration required to inhibit growth by 90%, human hepatocytes
[25] = male, CD-1, mouse, liver microsomes, pH 7.4, Table 12, 37° C., NADPH (1 mM), microsomes 0.5 mg/mL, test compounds 1.5 μM

EC50 [1, 13] [nM] | EC90 ([1]; Table 10) [nM] | Human microsomes, percentage of compound remaining [2] [%] | half-life at 1.5 μM [2] [h] | Brain/plasma ratio [3] | Kp at 1 h [3, 15] | Cmax [6, 21] [µM] | melting point [°C] | Compound | half-life at 3 μM [2] [min] | Average [compound] brain [3, 14] | Average [compound] plasma [3, 14] | EC50 [4, 16] [nM] | EC50 [4, 17] [nM] | EC50 [4, 18] [nM] | EC50 [4, 19] [nM] | EC90 ([4]; Table 9) [nM] | Mouse oral PK Tlast ([6]; Table 5) [min] | Mouse oral PK Average AUC ([6]; Table 5, n = 3) | EC50 [7] [nM] | EC50 [8] [nM] | further results
339 | 483 | 66 | > 1 | 1.81 ± 0.458 | 1.81 ± 0.793 | 2.01 ± 0.46 | 221 to 223 | O=C(Nc1ccc2sc(-c3ccc(F)c(F)c3)nc2c1)N1CCCC1 [Compound 2, 2-(3,4-Difluorophenyl)-5-(N-pyrrolidylamido)benzothiazole] | > 60 | 4.25 ± 1.20 µM | 2.61 ± 1.26 µM | 91.8 | 91.8 | 91.8 | 91.8 | 181 | 480 | 408 ± 95 (n = 3) min * μmol/L | > 50000 | 33900 | Kp at 1 h ([3]; mouse, brain and plasma, intraperitoneal, Table 5, mouse brain penetration (60 min), n = 3): 1.81 ± 0.793; Kp at 1 h ([3]; mouse, brain and plasma, intraperitoneal, Table 7, groups of 3 mice): 1.81 ± 0.793; concentration at 1 h ([3]; mouse, brain, intraperitoneal, Table 7, groups of 3 mice, read-out: Average [compound] brain): 4.25 ± 1.2 µM; concentration at 1 h ([3]; mouse, plasma, intraperitoneal, Table 7, groups of 3 mice, read-out: Average [compound] plasma): 2.61 ± 1.26 µM; concentration at 60 min ([3]; plasma, intraperitoneal, Table 5 r15, mouse brain penetration (60 min), n = 3): 2.61 ± 1.26 µM; EC50 ([4]; Table 7, read-out: T. brucei EC50): 91.8 nM; Microsome t1/2 (min) Mouse ([5]; Table 5): 13.8 min; Mouse microsomes t1/2 ([5]; Table 12, 37° C., NADPH (1 mM), microsomes 0.5 mg/mL, test compounds 1.5 μM): 0.233 h; AUC0 min-∞ [6, 20]: 443.3 ± 43.07 µM·min; Cmax [6, 22]: 2 ± 0.82 µM; Tmax [6, 23]: 1 h; EC90 [7, 24]: > 50000 nM; EC90 [8]: > 50000 nM
– | – | – | – | – | – | – | – | N=C(N)c1ccc(/N=N/Nc2ccc(C(=N)N)cc2)cc1 [diminazene aceturate, reference compound] | – | – | – | – | – | – | – | – | – | – | – | – | parasitemia outcome (in words) [9]: temporary clearance of parasitemia, but subsequently relapsed
– | – | – | – | – | – | – | – | CCN(CC)CCCC(C)Nc1c2ccc(Cl)cc2nc2ccc(OC)cc12 (stereo not drawn) [quinacrine, reference compound] | – | – | – | – | – | – | – | – | – | – | 10400 | – | EC90 ([7]; human): 18200 nM; EC90 [10]: 9940 nM
562 | 652 | 96 | > 1 | 7.71 ± 1.63 | 7.71 ± 1.63 | 11 ± 0.58 | 217 to 218 | O=C(Nc1ccc2sc(-c3ccc(F)c(F)c3)nc2c1)N1C[C@@H](F)[C@H](F)C1 [Compound 35, (3R,4R)-2-(3,4-Difluorophenyl)-5-(3,4-difluoro-N-pyrrolidylamido)benzothiazole] | – | – | – | 114 | 114 | 114 | 114 | 747 | – | – | > 50000 | 27100 | [compound]Brain [3]: 16.2 ± 2.88 µM; [compound]Plasma [3]: 2.19 ± 0.424 µM; concentration at 1 h ([3]; mouse, brain, intraperitoneal, Table 8, groups of 3 mice (compound 3: ± SEM of 6 mice), read-out: Average [compound] brain): 16.2 ± 2.88 µM; concentration at 1 h ([3]; mouse, plasma, intraperitoneal, Table 8, groups of 3 mice (compound 3: ± SEM of 6 mice), read-out: Average [compound] plasma): 2.19 ± 0.424 µM; Mouse microsomes, percentage of compound remaining ([5]; Table 12): 67%; half-life at 1.5 μM [5, 25]: > 1 h; AUC0 min-∞ [6, 20]: 13515 ± 224.6 µM·min; percent of the Cmax remaining ([6]; 24 h time point): 34%; percent of the Cmax remaining ([6]; 32 h time point): > 17%; EC90 [7, 24]: > 50000 nM; EC90 [8]: > 50000 nM

Compound | EC50 [1, 13] [nM] | EC90 ([1]; Table 10) [nM] | Human microsomes, percentage of compound remaining [2] [%] | half-life at 1.5 μM [2] [h] | Brain/plasma ratio [3] | Kp at 1 h [3, 15] | Cmax [6, 21] [µM] | melting point [°C] | half-life at 3 μM [2] [min] | Average [compound] brain [3, 14] | Average [compound] plasma [3, 14] | EC50 [4, 16] [nM] | EC50 [4, 17] [nM] | EC50 [4, 18] [nM] | EC50 [4, 19] [nM] | EC90 ([4]; Table 9) [nM] | Mouse oral PK Tlast ([6]; Table 5) [min] | Mouse oral PK Average AUC ([6]; Table 5, n = 3) | EC50 [7] [nM] | EC50 [8] [nM] | further results
O=C(Nc1ccc2sc(-c3ccc(F)c(F)c3)nc2c1)N1CCC(F)C1 (racemic) [Compound 3, 2-(3,4-Difluorophenyl)-5-(3-fluoro-N-pyrrolidylamido)benzothiazole] | 177 | 525 | 99 | > 1 | – | – | 10 ± 0.65 | 209 to 210 | > 60 | 5.48 ± 0.683^a μM | 3.26 ± 0.630^a μM | 51.9 | 51.9 | 51.9 | 51.9 | 91.9 | 480 | 3847 ± 466 (n = 3) min * μmol/L | > 50000 | > 50000 | EC50 ([1]; Table 6, read-out: T. cruzi EC50): 91.9 nM; [compound]Brain [3]: 5.48 ± 0.683^b μM; [compound]Plasma [3]: 3.26 ± 0.630^b μM; Kp at 1 h ([3]; mouse, in vivo, Table 5, mouse brain penetration (60 min), n = 3): 1.52 ± 0.0416; concentration at 60 min ([3]; mouse, in vivo, Table 5 r15, mouse brain penetration (60 min), n = 3): 2.78 ± 0.652 µM; concentration at 60 min ([3]; mouse, in vivo, Table 5 r17 (second line so headed), mouse brain penetration (60 min), n = 3): 4.22 ± 0.974 µM; Kp at 1 h ([3]; mouse, in vivo, Table 8, groups of 3 mice): 2.11 ± 0.669; EC50 ([4]; Table 6, read-out: T. brucei EC50): 51.9 nM; Mouse microsomes, percentage of compound remaining ([5]; Table 12): 52%; half-life at 3 μM ([5]; male, CD-1, mouse, liver microsomes, pH 7.4, Table 5, read-out: Microsome t1/2 (min) Mouse): 60 min; half-life at 1.5 μM [5, 25]: > 1 h; Cmax [6, 22]: 10 ± 1.1 µM; Tmax [6, 23]: 1 h; EC90 [11]: > 50000 nM; EC90 [12]: > 50000 nM
